{
  "source": "patent US10975399B2",
  "about": "“Use of nitric oxide or nitric oxide donor for inducing the production of triacylglycerols in microalgae” (Commissariat A L'energie Atomique Et Aux Energies …, priority 2016, dated 2021)",
  "key": {"[1]": {"test_system": "Phaeodactylum tricornutum", "assay": "TAG accumulation by Nile Red staining", "type": "cell-based", "settings": "1 mM, 2-day incubation, 500 μL volume, 10×ESAW medium", "method": "FIGS. 1 to 4: Effect of increasing concentrations of SNAP on the production of TAG in Phaedocatylum tricornutum. The medium used was 10×ESAW; incubation was performed in 500 μl, inoculated at 1E+06 cells/ml, with immediate addition of chemicals. Measurements were performed after 2 days of incubation. Data of FIGS. 1 and 2 and 3 are the results of 3 biological replicates, FIG. 4 was a time course without replicates. NAP was used as a non-active analogue of SNAP. FIG. 2: Effect of increasing concentrations of SNAP on TAG level per cell. TAG level per cell is given in relative fluorescence units/10^6 cells. FIG. 3: Effect of increasing concentrations of SNAP on TAG productivity. TAG productivity is given in relative fluorescence unit (Rfu) corresponding to the fluorescence of Nile Red per mL and per day. […] Growth was evaluated by cell counting using a Malassez counting chamber, or by the absorption at 750 nm using a plate reader. […] Accumulation of TAG droplets was monitored by Nile Red (Sigma Aldrich) fluorescent staining (Excitation wavelength at 485 nm; emission at 525 nm) following the principles previously described (Abida et al., 2015). In brief, cells were diluted and adjusted to a cell density that was linearly correlated with Nile Red fluorescence. […] Alternatively, Nile red fluorescence values were normalized to the cell concentration."}, "[2]": {"test_system": "Phaeodactylum tricornutum", "assay": "Growth of P. tricornutum incubated with the NO donor (cell counting)", "type": "cell-based", "settings": "1 mM, 2-day incubation, 500 μL volume, 10×ESAW medium, FIG. 1", "method": "FIGS. 1 to 4: Effect of increasing concentrations of SNAP on the production of TAG in Phaedocatylum tricornutum. The medium used was 10×ESAW; incubation was performed in 500 μl, inoculated at 1E+06 cells/ml, with immediate addition of chemicals. Measurements were performed after 2 days of incubation. Data of FIGS. 1 and 2 and 3 are the results of 3 biological replicates, FIG. 4 was a time course without replicates. NAP was used as a non-active analogue of SNAP. FIG. 1: Effect of increasing concentrations of SNAP on growth. Growth is measured in cell/mL. Phaeodactylum tricornutum (Ptl) Bohlin Strain 8.6 CCMP2561 (Culture Collection of Marine Phytoplankton, now known as NCMA: National Center for Marine Algae and Microbiota) was used in all experiments. Ptl was grown at 20° C. in 250 mL flask in artificial seawater (ESAW) medium (composition of the medium see table 1) using ten times enriched nitrogen and phosphate sources (5.49·10^−3 M NaNO3 and 2.24·10^−4 NaH3PO4) called “10×ESAW”, or nitrogen-depleted medium. Cells were grown on a 12:12 light (30 μE m^−2sec^−1)/dark cycle. Cells were sub-cultured twice a week by inoculating 1·10^6 cells/ml with fresh media. Growth was evaluated by cell counting using a Malassez counting chamber, or by the absorption at 750 nm using a plate reader. S-Nitroso-N-acetylpenicillamine (SNAP) is a compound that spontaneously releases NO, when dissolved."}},
  "data": [
    {"compound": "CC(=O)N[C@H](C(=O)O)C(C)(C)SN=O", "note": "(racemic) [SNAP, S-Nitroso-N-acetylpenicillamine]", "values": [
      {"measurement": "increase of productivity (level of TAG per volume of culture and per day)", "setting": "[1]; Nile Red Rfu per mL and per day, FIG. 3", "result": "> 2", "unit": "fold"},
      {"measurement": "increase of TAG per cell", "setting": "[1]; Nile Red fluorescence per 10^6 cells, FIG. 2", "result": 2.2, "unit": "fold"},
      {"measurement": "cell growth", "setting": "[2]", "result": "reduction of cell growth"}
    ]}
  ]
}
